Measurements taken from patent US11179344B2, “Nanoparticle-based liver-targeting therapy” (Midatech Limited, priority 2017, dated 2021).
pIC50: −log10 of the molar value.

How the values were obtained:
[1] = test system: subcutaneous BEL7404 hepatocellular cancer xenograft; experiment: Anti-tumour efficacy, subcutaneous BEL7404 xenograft model; type: in vivo, NOD/SCID mice; conditions: for T/C / Tumour size: day 13; for Tumour size: Mean ± SEM
Method: The in vivo anti-tumour efficacy of MTC-100038 in a subcutaneous BEL7404 hepatocellular cancer xenograft model in NOD/SCID mice was evaluated. Briefly NOD/SCID mice (18-22 g, n=10 per group) were implanted subcutaneously with BEL7404 tumour cells (3×10^6) in 0.1 ml of PBS for tumour development. Group/dosing assignment commenced when tumours reached a pre-determined volume of ˜200 mm^3 subcutaneous tumours.
Tumour size was measured twice weekly, and the volume was expressed in mm^3. The tumour size was then used for calculations of T/C values.

[2] = Tolerability (body weight change), Hep3B orthotopic xenograft model; type: in vivo, BALB/c nude mice; conditions: daily oral administration for 21 days
Method: The animals in this case were a mouse HCC model with a Hep3B orthotopic xenograft. MTC-100038, DM1, or vehicle were administered I.V. to BALB/c nude mice in 2×5 day cycles (shaded), whilst Sorafenib was administered by daily oral administration for 21 days (dashed line) at a dose of 60 mg/kg, which was the highest tolerated dose in this model. Percentage body weight change was calculated based on animal weight on the first day of dosing. Data points represent percent group mean change in body weight±SEM. Treatment groups were: Vehicle (black circles), Sorafenib 60 mg/kg (squares), free DM1 0.150 mg/kg (triangles), MTC-100038 0.225 mg/kg (green circles), MTC-100038 0.338 mg/kg (diamonds) and MTC-100038 0.450 mg/kg (inverted triangles).

[3] = test system: orthotopic Hep3B-Luc hepatocellular cancer xenograft; experiment: Anti-tumour efficacy, orthotopic HEP3B xenograft model (bioluminescence); type: in vivo, BALB/c nude mice; conditions: for T/C (%) / Bioluminescence: day 21; for Bioluminescence: Mean
Method: The in vivo anti-tumour efficacy of MTC-100038 in an orthotopic hepatocellular cancer xenograft model in BALB/c nude mice was evaluated. Briefly, female BALB/c nude mice (18-23 g, n=10/group), were implanted with approximately 3×10^6 Hep3B-Luc cells mixed with BD Matrigel in 20 μL (PBS:Matrigel=1:1). Animals were selected and randomized (based on their bioluminescence density) on day 7 after tumour implantation to 6 groups using randomized block design based upon their bioluminescence.
The tumour bioluminescence was used for the calculation of T/C value (in percent), where T and C are the mean bioluminescence of the treated and control groups, respectively, on a given day. Statistical analysis of difference in bioluminescence among the groups and the analysis of drug interaction were conducted on the data obtained at the best therapeutic time point after the final dose (the 21st day after the start of treatment).
A one-way ANOVA was performed to compare bioluminescence among groups, and when a significant F-statistics (a ratio of treatment variance to the error variance) was obtained, comparisons between groups were carried out with Games-Howell test with p<0.05 statistically significant.

[4] = test system: human hepatocellular carcinoma cell line HepG2; experiment: MTT cell viability assay, Pt / doxorubicin loaded nanoparticles vs free drug; conditions: concentration based on drug amount, FIG. 7: 72 h after treatment
Method: The human hepatocellular carcinoma cell line HepG2 was used in the assay.
HepG2 cells were grown in a T-75 flask. For the transfer of the cell the medium was removed from the flask and the cells were trypsinated for 5 minutes. The cells were collected in a Falcon tube and diluted with complete cell medium. The cell counting was conducted in a Neubauer chamber. A cell solution was prepared to seed 4000 cells per well (200 μL per well). The microtiter plate was incubated for 24 h at 37° C.
For each NP and drug, formulations in cell medium were prepared. The compounds were tested in different concentrations (0.01, 0.05, 0.2, 1, 5, 25 and 125 μM based on drug amount). For the treatment, the cell medium was removed from all wells and exchanged for drug formulations. 200 μl of treatments per triplicate was added to each well. The microtiter plates were incubated for 24 h, 48 h and 72 h at 37° C.
1.5 mL MTT solution (8.0 mg in 1.6 mL DMSO) was diluted with complete cell medium (phenol-red free). The treatment cell medium was removed from the microtiter plate, the wells were washed with 100 μL PBS and 100 μL of the MTT reactive solution was added to each well. After one hour incubation at 37° C. the MTT solution was removed and 100 μL DMSO was added to dissolve the formazan dye. Absorbance was measured at 570 nm.
Data were analysed using OriginPro8. The normalized data were plotted and the curve was fitted using a non-linear regression curve fit (sigmoidal dose-response curve with variable slope). The Absolute IC50 values were obtained by interpolation.

HCC cells = experiment: In vitro targeting of GNPs to HCC cells (counts per field); type: cell-based; conditions: relative to base GNP lacking the peptide
Description: (SEQ ID NO: 1), via its N-terminus (approx. 4 peptide molecules per nanoparticle).
Several base/peptide targeted GNPs were screened in vitro. GNPs having a mixed corona comprising galactose-C2-SH (Gal-C2) ligands and HSPEG8COOH were synthesised according to methodology analogous to that described above in Examples 1 and 2, with however galactose-C2-SH replacing glucose-C2-SH and HSPEG8COOH (also abbreviated SH-EG8-COOH or SH—(OCH2CH2)8—COOH) replacing the amino linker NH2-EG6-SH.
The glypican-3 peptide described in U.S. Pat. No. 8,388,937B2 (the contents of which are expressly incorporated herein by reference)—see SEQ ID NO: 1 thereof, which has the amino acid sequence: […] (SEQ ID NO: 1) was linked to the terminal COOH group of a proportion of the HSPEG8COOH ligands via the N-terminus of said peptide. In a “high loading” GNP construct (see row 1 in the table below), approximately 4 peptides were linked per nanoparticle core. The “high loading” Au@Gal-C2:HSPEG8COOH:HSPEG8CONH[…] The “low loading” Au@Gal-C2:HSPEG8COOH:HSPEG8CONH[…]

Hep3B cells = experiment: In vitro cytotoxicity, Hep3B; type: cell-based, human
Description: A lower bar height indicates higher cytotoxic potency.
(§1) The cytotoxicity of gold nanoparticle constructs GalC2-PEG8COOH-GNP (parent, non-functionalised gold nanoparticle (MTC-100011)), and MTC-100038 were compared to free DM1 drug in the HCC cell lines HEPG2 and HEP3B.

[5] = Tolerability (body weight change), mouse model with human HCC xenograft; type: in vivo; conditions: I.V., five consecutive days
Method: The animals in this case were a mouse model with a human HCC xenograft. Animals dosed intravenously (I.V.) for five consecutive days (shaded area left of dotted vertical line) at either a low dose of 0.15 mg/kg of DM1 alone (inverted triangles) or high dose of 0.45 mg/kg DM1 alone (diamonds) or MTC-100038 at equivalent DM1 doses low (circles) and high (squares). Percentage body weight change was calculated based on animal weight on the first day of dosing. Data points represent percent group mean change in body weight±SEM. Body weight change is positive in the MTC-100038 nanoparticle-treated animals, but negative (low dose) or fatal (high dose) in the free DM1-treated animals.

[6] = test system: subcutaneous Hep3B hepatocellular cancer xenograft; experiment: Anti-tumour efficacy, subcutaneous HEP3B xenograft model; type: in vivo, NOD/SCID mice; conditions: 0.1125 mg/kg i.v. QD×5, day 13
Method: The in vivo anti-tumour efficacy of MTC-100038 in a subcutaneous Hep3B hepatocellular cancer xenograft model in NOD/SCID mice was evaluated. Briefly NOD/SCID mice (18-22 g, n=10 per group) were implanted subcutaneously with HEP 3B hepatocellular cells (3×10^6) in 0.1 mL PBS for tumour development. Group/dosing assignment commenced when tumours reached a pre-determined volume of ˜200 mm^3 subcutaneous tumours (n=10 per group). Tumour size was measured twice weekly, and the volume was expressed in mm^3. The tumour size was then used for calculations of T/C values. The T/C value (in percent) is an indication of anti-tumour effectiveness (optimally, a test article is considered to have anti-tumour activity when T/C is 50% or less); T and C are the mean volumes of the treated and control groups, respectively, on a given day.

[7] = Pharmacokinetics and biodistribution of DM1, subcutaneous Hep3B xenograft model; type: in vivo, NOD/SCID mouse; conditions: no further decline at 48 hours, dosed article not stated
Method: DM1 tumour concentration (mean±SEM) is shown for MTC-100038-treated (equivalent DM1 dose 0.06 mg/kg) animals (left-hand bars) and free DM1-treated animals (also 0.06 mg/kg dose) (right-hand bars). Time points are 2 hours (solid fill), 24 hours (horizontal lines) and 48 hours (checked pattern).
The in vivo pharmacokinetics and biodistribution of DM1 was studied in the subcutaneous Hep3B human hepatocellular cancer xenograft model (Table 1). The concentration of gold and DM1 in liver and kidney samples was evaluated 2, 24 and 48 hours after the last drug administration.

BEL7404 = experiment: In vitro cytotoxicity, BEL7404; type: cell-based
[8] = test system: HCC cell lines HEPG2 and HEP3B; experiment: Cytotoxicity of gold nanoparticle constructs vs free DM1 (text values); type: cell-based, human; conditions: line for the value not stated
Description: as §1

[9] = 0.15 mg/kg i.v. QD×5 (D0-4) + QD×5 (D8-12)

For `CNC(=O)c1cc(Oc2ccc(NC(=O)Nc3ccc(Cl)c(C(F)(F)F)c3)cc2)ccn1` [Sorafenib], the “anti-tumour activity compared to vehicle” value ([1]; 60 mg/kg over 21 days) was “significant tumour growth inhibition”, the T/C ([1]; 60 mg/kg p.o. QD×21) was 41.9% and the Tumour size ([1]; 60 mg/kg p.o. QD×21) was 984 ± 64 mm^3. The highest tolerated dose [2] was 60 mg/kg, the “anti-tumour activity compared with vehicle group” value ([3]; 60 mg/kg) was “significant anti-tumour activity” and the “T/C (%)” value ([3]; 60 mg/kg p.o. QD×21) was 22.3%. The Bioluminescence ([3]; 60 mg/kg p.o. QD×21) was 3.24E+09 photons/s and the Bioluminescence ([3]; 60 mg/kg p.o. QD×21, listed as sorafenib) was 3.24×10^9 photons/s.
`COc1cccc2c1C(=O)c1c(O)c3c(c(O)c1C2=O)C[C@@](O)(C(=O)CO)C[C@@H]3O[C@H]1C[C@H](N)[C@H](O)[C@H](C)O1` [Doxorubicin, doxorubicin] gave a pIC50 ([4]; Homo sapiens) of 7.22.
Work on platinum-(IV)-succinate yielded a pIC50 [4] of 4.41 and a pIC50 ([4]; listed as Pt(IV)-succinate) of 4.41.
For GNP-GalC2(50)-AL(50)-(Ac)YFLTTRQ, the “Fold-targeting (over base particle)” value (HCC cells) was 5.0 fold and the “Fold-targeting (over base particle)” value (HCC cells; listed as Au@GalC2:AL:AL-(Ac)-YFLTTRQ) was “approximately 5 fold”.
With `COc1cc2cc(c1Cl)N(C)C(=O)C[C@H](OC(=O)[C@H](C)N(C)C(=O)CCS)[C@]1(C)O[C@H]1[C@H](C)[C@@H]1C[C@@](O)(NC(=O)O1)[C@H](OC)/C=C/C=C(\C)C2` [DM1, maytansinoid DM1] the “anti-tumour activity compared to vehicle” value ([1]; 0.15 mg/kg) was “no anti-tumour activity”, the T/C [1, 9] was 113.2% and the Tumour size [1, 9] was 2656 ± 180 mm^3. The pIC50 (Hep3B cells) was 7.96, the “body weight change, low dose” value ([5]; 0.15 mg/kg DM1 or equivalent DM1 dose) was “negative” and the “body weight change, high dose” value ([5]; 0.45 mg/kg DM1 or equivalent DM1 dose) was “fatal”. For the same compound, the T/C [6] was 78.9%, the Tumour size ([6]; Mean ± SEM) was 1217 ± 254 mm^3 and the “anti-tumour activity compared with vehicle group” value ([3]; 0.15 mg/kg) was “no anti-tumour activity”. The “T/C (%)” value [3, 9] was 83.4%, the Bioluminescence [3, 9] was 1.21E+10 photons/s and the “decline of DM1 concentration in the tumour between 2 and 24 hours” value [7] was “about 40%”. For the same compound, the pIC50 (BEL7404) was 8.05 and the pIC50 [8] was 8.38.
